From patent US11453647B2, “Benzimidazole derivatives as adenosine receptor antagonists” (Merck Patent GmbH, priority 2017, dated 2022)

Legend:
Format in all cases: cell-based
human A3 receptor = molecular target: T1, human A3 receptor (Homo sapiens, UniProt P0DMS8); test: functional cAMP (HTRF) assay, recombinant CHO cells expressing human A3 receptor, forskolin, agonist IB-MECA
T1 construct: expressed in transfected cells; host or cells: CHO
T1 sequence (P0DMS8 1-318): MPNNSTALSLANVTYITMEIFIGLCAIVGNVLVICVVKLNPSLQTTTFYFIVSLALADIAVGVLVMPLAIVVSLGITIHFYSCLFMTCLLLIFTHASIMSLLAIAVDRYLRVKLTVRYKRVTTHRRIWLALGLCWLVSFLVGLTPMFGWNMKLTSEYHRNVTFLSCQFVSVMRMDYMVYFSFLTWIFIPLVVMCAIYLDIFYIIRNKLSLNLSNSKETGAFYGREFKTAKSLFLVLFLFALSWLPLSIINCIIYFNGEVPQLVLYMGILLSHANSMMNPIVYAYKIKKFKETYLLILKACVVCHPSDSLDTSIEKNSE
In short: (§1)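 Gi-coupled readout: CHO cells expressing human A1 or A3 receptor were treated with forskolin, test compound and agonist (CPA for A1, IB-MECA for A3) for 30 min; cellular cAMP was then measured by HTRF. Data were normalized to inhibitor and DMSO controls and curve-fitted.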

human A1 receptor = molecular target: T2, human A1 receptor (Homo sapiens, UniProt P30542); test: functional cAMP (HTRF) assay, recombinant CHO cells expressing human A1 receptor, forskolin, agonist CPA
T2 construct: expressed in transfected cells; host or cells: CHO
T2 sequence (P30542 1-326): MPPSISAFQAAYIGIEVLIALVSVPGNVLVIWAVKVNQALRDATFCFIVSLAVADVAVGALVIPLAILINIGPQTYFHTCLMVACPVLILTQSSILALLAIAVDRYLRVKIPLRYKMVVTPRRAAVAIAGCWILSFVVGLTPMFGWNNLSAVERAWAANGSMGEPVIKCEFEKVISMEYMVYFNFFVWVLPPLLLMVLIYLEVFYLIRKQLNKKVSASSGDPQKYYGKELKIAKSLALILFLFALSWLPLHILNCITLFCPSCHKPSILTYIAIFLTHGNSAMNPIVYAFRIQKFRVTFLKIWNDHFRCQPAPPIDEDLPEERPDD
In short: as §1

A2B receptors = molecular target: T3, A2B receptors (Homo sapiens, UniProt P29275); test: functional cAMP (HTRF) assay, recombinant HEK293 cells expressing human A2B receptor, agonist NECA; parameters: expressed in transfected cells; host or cells: HEK293
T3 sequence (P29275 1-332): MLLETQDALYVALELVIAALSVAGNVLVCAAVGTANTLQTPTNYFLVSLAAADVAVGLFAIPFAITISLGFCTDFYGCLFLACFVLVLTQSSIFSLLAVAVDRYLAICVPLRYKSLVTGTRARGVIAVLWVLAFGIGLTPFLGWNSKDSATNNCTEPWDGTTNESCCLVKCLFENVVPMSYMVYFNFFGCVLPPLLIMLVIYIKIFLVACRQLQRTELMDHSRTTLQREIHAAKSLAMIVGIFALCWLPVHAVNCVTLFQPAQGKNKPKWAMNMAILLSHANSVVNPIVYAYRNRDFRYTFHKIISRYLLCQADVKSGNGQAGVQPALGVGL

human A2A receptor = molecular target: T4, human A2A receptor (Homo sapiens, UniProt P29274); test: functional cAMP (HTRF) assay, recombinant HEK293 cells expressing human A2A receptor, agonist NECA
T4 construct: expressed in transfected cells; host or cells: HEK293
T4 sequence (P29274 whole entry): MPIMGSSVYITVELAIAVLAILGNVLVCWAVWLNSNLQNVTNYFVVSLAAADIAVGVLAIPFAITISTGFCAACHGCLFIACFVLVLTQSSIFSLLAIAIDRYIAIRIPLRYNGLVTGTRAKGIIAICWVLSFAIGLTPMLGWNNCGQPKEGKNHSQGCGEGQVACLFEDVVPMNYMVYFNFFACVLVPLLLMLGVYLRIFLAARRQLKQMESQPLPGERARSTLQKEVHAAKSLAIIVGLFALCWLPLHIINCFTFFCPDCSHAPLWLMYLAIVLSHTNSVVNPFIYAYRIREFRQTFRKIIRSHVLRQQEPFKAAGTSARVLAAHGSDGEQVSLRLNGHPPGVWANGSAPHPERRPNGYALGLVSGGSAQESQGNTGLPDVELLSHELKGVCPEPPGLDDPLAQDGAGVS

Row | SMILES | IC50 (human A3 receptor) [µM] | IC50 (human A1 receptor) [µM] | IC50 (A2B receptors) [µM] | IC50 (human A2A receptor) [µM]
1 | COc1ccc(-c2cnn(C)c2)c2nc(NC(=O)c3ccc(N4C(=O)CCC4=O)cc3)[nH]c12 [compound 248, 4-(2,5-dioxopyrrolidin-1-yl)-N-[7-methoxy-4-(1-methyl-1H-pyrazol-4-yl)-1H-1,3-benzodiazol-2-yl]benzamide] | > 1 | > 1 | < 0.1 | < 0.01
2 | COc1ccc(-c2cnn(C)c2)c2nc(NC(=O)N3CCC(Oc4ccccc4)CC3)[nH]c12 [compound 54, N-[7-methoxy-4-(1-methyl-1H-pyrazol-4-yl)-1H-1,3-benzodiazol-2-yl]-4-phenoxypiperidine-1-carboxamide] | > 1 | < 1 | < 1 | < 0.1
3 | COc1ccc(-c2cnn(C)c2)c2nc(NC(=O)c3ccc(C(=O)N(C)C)nc3)[nH]c12 [compound 162, N5-[7-methoxy-4-(1-methyl-1H-pyrazol-4-yl)-1H-1,3-benzodiazo1-2-yl]-N2,N2-dimethylpyridine-2,5-dicarboxamide] | > 1 | > 1 | < 1 | < 0.1
4 | COCCn1cc(C(=O)Nc2nc3c(C4CCOCC4)ccc(OC)c3[nH]2)cn1 [compound 225, N-[7-methoxy-4-(oxan-4-yl)-1H-1,3-benzodiazol-2-yl]-1-(2-methoxyethyl)-1H-pyrazole-4-carboxamide] | > 1 | > 1 | < 0.1 | < 0.01
5 | COc1ccc(-c2ccccc2)c2nc(NC(=O)N3CCC(F)(F)CC3)[nH]c12 [compound 287, 4,4-difluoro-N-(7-methoxy-4-phenyl-1H-1,3-benzodiazol-2-yl)piperidine-1-carboxamide] | > 1 | < 1 | < 0.1 | < 0.1
6 | COc1ccc(-c2cnn(C3CCN(C(=O)OC(C)(C)C)CC3)c2)c2[nH]c(NC(=O)N3CCC(C)(O)CC3)nc12 [compound 145, tert-butyl 4-(4-{2-[(4-hydroxy-4-methylpiperidine-1-carbonyl)amino]-4-methoxy-1H-1,3-benzodiazol-7-yl}-1H-pyrazol-1-yl)piperidine-1-carboxylate] | > 1 | > 1 | > 1 | < 0.01
7 | COc1ccc(-c2ccncc2)c2nc(NC(=O)N3CCC4(COC4)C3)[nH]c12 [compound 85, N-[7-methoxy-4-(pyridin-4-yl)-1H-1,3-benzodiazol-2-yl]-2-oxa-6-azaspiro[3.4]octane-6-carboxamide] | > 1 | > 1 | < 1 | < 0.1
8 | COc1ccc(-c2cccnc2)c2[nH]c(NC(=O)c3c[nH]cn3)nc12 [compound 268, N-[4-methoxy-7-(pyridin-3-yl)-1H-1,3-benzodiazol-2-yl]-1H-imidazole-4-carboxamide] | > 1 | > 1 | < 0.1 | < 0.01
9 | COc1ccc(-c2ccc(F)cc2)c2nc(NC(=O)N3CCC(C)(O)CC3)[nH]c12 [compound 144, N-[4-(4-fluorophenyl)-7-methoxy-1H-1,3-benzodiazol-2-yl]-4-hydroxy-4-methylpiperidine-1-carboxamide] | > 1 | < 1 | < 1 | < 0.01
10 | COc1ccc(-c2ccc(F)cc2)c2nc(NC(=O)c3ccc(N4C(=O)CCC4=O)cc3)[nH]c12 [compound 317, 4-(2,5-dioxopyrrolidin-1-yl)-N-[4-(4-fluorophenyl)-7-methoxy-1H-1,3-benzodiazol-2-yl]benzamide] | < 1 | < 1 | < 0.01 | < 0.01

Other lines, results leading:

Row | IC50 (human A3 receptor) [µM] | IC50 (human A1 receptor) [µM] | IC50 (A2B receptors) [µM] | IC50 (human A2A receptor) [µM] | SMILES
11 | < 1 | > 1 | < 0.1 | < 0.01 | COc1cc(F)c(C2=CCOCC2)c2nc(NC(=O)c3cnn(C)c3)[nH]c12 [compound 264, N-[4-(3,6-dihydro-2H-pyran-4-yl)-5-fluoro-7-methoxy-1H-1,3-benzodiazol-2-yl]-1-methyl-1H-pyrazole-4-carboxamide]
12 | < 1 | > 1 | > 1 | < 0.01 | COc1ccc(-c2cnn(C)c2)c2nc(NC(=O)c3ccnc(N4CCC5(CCOC5)C4)c3)[nH]c12 (centres unmarked) [compound 106, N-[7-methoxy-4-(1-methyl-1H-pyrazol-4-yl)-1H-1,3-benzodiazol-2-yl]-2-{2-oxa-7-azaspiro[4.4]nonan-7-yl}pyridine-4-carboxamide]
13 | < 0.01 | < 1 | < 1 | < 0.01 | COc1ccc(-c2cnn(C)c2)c2nc(NC(=O)c3ccnc(Br)c3)[nH]c12 [compound 95, 2-bromo-N-[7-methoxy-4-(1-methyl-1H-pyrazol-4-yl)-1H-1,3-benzodiazol-2-yl]pyridine-4-carboxamide]
14 | < 1 | > 1 | < 1 | < 0.1 | COc1ccc(-c2cnn(C)c2)c2nc(NC(=O)c3ccc(CN4CCOCC4)cc3)[nH]c12 [compound 152, N-[7-methoxy-4-(1-methyl-1H-pyrazol-4-yl)-1H-1,3-benzodiazol-2-yl]-4-[(morpholin-4-yl)methyl]benzamide]
15 | < 1 | < 1 | < 1 | < 0.1 | COc1ccc(-c2cnn(C)c2)c2nc(NC(=O)c3ccon3)[nH]c12 [compound 84, N-[7-methoxy-4-(1-methyl-1H-pyrazol-4-yl)-1H-1,3-benzodiazol-2-yl]-1,2-oxazole-3-carboxamide]
16 | < 1 | > 1 | < 0.1 | < 0.1 | COc1ccc(-c2ccccc2)c2nc(NC(=O)c3cn(C)nc3C)[nH]c12 [compound 269, N-(7-methoxy-4-phenyl-1H-1,3-benzodiazol-2-yl)-1,3-dimethyl-1H-pyrazole-4-carboxamide]
17 | < 1 | > 1 | < 1 | < 0.01 | COCCn1cc(C(=O)Nc2nc3c(-c4cnn(C)c4)ccc(OC)c3[nH]2)cn1 [compound 161, N-[7-methoxy-4-(1-methyl-1H-pyrazol-4-yl)-1H-1,3-benzodiazol-2-yl]-1-(2-methoxyethyl)-1H-pyrazole-4-carboxamide]
18 | < 0.1 | > 1 | < 1 | < 0.01 | COCc1ccc(C(=O)Nc2nc3c(-c4cnn(C)c4)ccc(OC)c3[nH]2)cc1 [compound 49, N-[7-methoxy-4-(1-methyl-1H-pyrazol-4-yl)-1H-1,3-benzodiazol-2-yl]-4-(methoxymethyl)benzamide]
19 | < 1 | < 1 | < 0.01 | < 0.01 | COc1ccc(-c2ccccc2)c2nc(NC(=O)c3c[nH]c(C)n3)[nH]c12 [compound 255, N-(7-methoxy-4-phenyl-1H-1,3-benzodiazol-2-yl)-2-methyl-1H-imidazole-4-carboxamide]
20 | < 1 | > 1 | < 1 | < 0.01 | COc1ccc(-c2cnn(C)c2)c2nc(NC(=O)c3ccnc(N4CCC(C)(O)CC4)c3)[nH]c12 [compound 105]
21 | < 1 | < 1 | < 0.1 | < 0.1 | COCCn1cc(C(=O)Nc2nc3c(-c4ccc5[nH]nc(C)c5c4)ccc(OC)c3[nH]2)cn1 [compound 282, N-[7-methoxy-4-(3-methyl-1H-indazol-5-yl)-1H-1,3-benzodiazol-2-yl]-1-(2-methoxyethyl)-1H-pyrazole-4-carboxamide]
22 | < 0.1 | < 0.1 | < 0.01 | < 0.01 | COc1ccc(-c2ccc(F)cc2)c2nc(NC(=O)c3cnn(C)c3)[nH]c12 [compound 318, N-[4-(4-fluorophenyl)-7-methoxy-1H-1,3-benzodiazol-2-yl]-1-methyl-1H-pyrazole-4-carboxamide]
23 | < 0.1 | > 1 | < 1 | < 0.01 | COc1ccc(N2CCOCC2)c2nc(NC(=O)c3ccc(F)cc3)[nH]c12 [compound 63, 4-fluoro-N-[7-methoxy-4-(morpholin-4-yl)-1H-1,3-benzodiazol-2-yl]benzamide]
